Assay results reported in patent US12274689B2, “Compound for the management of feline diabetes” (INCREVET, INC., priority 2019, dated 2025).

Legend:
[1] = system: healthy cats; assay: 21-day high-dose study in healthy cats (study 3); assay type: in vivo, cat; conditions: 15 mg kg^−1 bid (30 mg kg^−1 day^−1) for 21 days
Text: All cats regained weight when the dosing ended. Because diabetic cats are often presented as a result of weight loss, the degree of […] would clearly be adverse and incompatible with treatment.

[2] = system: client-owned cats diagnosed with diabetes mellitus; assay: field effectiveness study in client-owned diabetic cats; assay type: in vivo, cat; parameters: mean serum glucose: unit: mg/dL
Protocol: In a field effectiveness study, client-owned cats that had been diagnosed with diabetes mellitus based on: i) two separate fasting (≥6 h) blood glucose measurements>250 mg dL^−1; ii) glucosuria; iii) fructosamine>450 μmol L^−1 (subsequently changed to >360 μmol L^−1 due to a change in the testing laboratory methodology), and iv) one or more of the following: polyuria/polydipsia, polyphagia and/or weight loss (documented in the cat's medical records) were enrolled. Cats with suspected diabetes mellitus were evaluated during visit 1 (within 7 days prior to day 0). […] Cats were prescribed a diet for diabetic animals (Purina DM, either dry or wet variety). Cats were returned to the clinic for evaluation of glycemic control during visits 3 (day 14±3), 4 (day 28±3), and 5 (day 56±3). The treatment period was from visit 2 (day 0) through visit 5 (day 56±3). A cat could have been brought back to the clinic at any time for unscheduled visits if such visits were determined to be necessary by the owner or investigator. Eight-hour blood glucose curves (blood samples collected every 2 h±15 min for 8 h) were conducted at every visit starting with visit 2 (day 0) and blood glucose was measured using an AlphaTRAK 2 glucometer (Abbott Laboratories). Blood samples for hematology and serum chemistry were collected at screening and during each scheduled visit after initiation of dosing. A central laboratory was used to evaluate all clinical pathology samples (blood, serum, and urine) that are not analyzed in the clinic for blood glucose curves.
Serum chemistries included assessment of fructosamine. […] To accommodate the change in reference range, data were harmonized by expression as a percentage of the upper limit of normal and log-transformed percentages were analyzed by repeated measures ANCOVA with an unstructured covariance and visit as a fixed effect. The upper limit of normal for the testing laboratory for fasting serum glucose was 155 mg dL^−1. The data below were tabulated after 32 cats completed the day 56 visit.
Each cat was classified as having achieved (or not achieved) glycemic control on Day 56±3 (success/failure). Treatment success was defined as improvement of at least one blood glucose variable (BG mean<250 mg dL^−1; or fructosamine<450 μmol/L or <360 μmol/L, depending on the assay reference range at the time of the analysis), and the veterinarian's assessment of adequate glycemic control at the final evaluation. All cats that remained on-study to V5 were considered treatment successes. Of the 8 cats that were considered treatment failures, 6 cats were removed from the study following an SAE, 1 cat was removed at the sponsor's request, and 1 cat was removed due to the use of a study-proscribed medication to treat an AE. Table 3 also tallies the cats achieving a fructosamine concentration less than the upper limit of normal (356 μmol L^−1 initially and 275 μmol L^−1 subsequently).
Responsibility for assessing clinical signs of diabetes mellitus was divided between owners and treating veterinarians. Weight was recorded at each visit by the veterinarian, and the signs of polydipsia, polyuria and polyphagia were recorded at each visit by the owner, using a four-point (0 to 3) integer score in which low scores represented favorable ratings.
In addition to providing a measure of the status of the cat as a function of time, the quantitative assessments were used to produce a binary outcome of success or failure at study completion. To score as a success by weight, the weight at Visit 5 was to exceed the weight at Visit 2 (treatment initiation). To score as success by the other signs the owner score at visit 5 was to be less than the owner score at Visit 2.
Glucose curves were constructed by glucometer measurement of blood sampled at hours 0, 2, 4, 6 and 8 post-dose. […]

[3] = by visit, non-parametric test highly significant

## OC[C@H]1O[C@@H](c2ccc(Cl)c(Cc3ccc(OCCOC4CC4)cc3)c2)[C@H](O)[C@@H](O)[C@@H]1O [bexagliflozin, (2S,3R,4R,5S,6R)-2-(4-chloro-3-(4-(2-cyclopropoxyethoxy)benzyl)phenyl)-6-(hydroxymethyl)tetrahydro-2H-pyran-3,4,5-triol]
[1]
  body weight: cats lost weight throughout the study
[2]; baseline to week 8, p<0.0001
  treatment effect on the gain in body mass per cat: highly significant
[2]; by day 56
  cats that either maintained or increased their weight: 82%
[2]; [3]
  mean owner scores for polydipsia: declined
  mean owner scores for polyuria: declined
[2]; by visit, non-parametric test significant
  mean owner scores for polyphagia: declined
[2]; case 5, decreased from 5.4 kg
  weight of case 5 at study end: 5.1 kg
[2]; cases 7, 28 and 30, V5
  treatment outcome of cats with IGF-1 above the upper limit of normal (92 nmol/L): All three cases were considered treatment successes
[2]; diabetic cats, field study
  symptomatic hypoglycemia: None of the cats exhibited a symptomatic hypoglycemia
[2]; individual cats, V5
  Veterinarian Glycemic Control Criteria Met: Yes
[2]; individual cats, V5, BG mean <250 mg dL^−1
  Mean BG Criteria Met: Yes
[2]; of 40 cats enrolled
  cats removed from the study following an SAE: 6 cats
[2]; of 40 enrolled cats
  Any Success, Col Sum (number of cats): 31
  Non-Weight Success, Col Sum (number of cats): 30
  Polydipsia Success, Col Sum (number of cats): 23
  Polyphagia Success, Col Sum (number of cats): 17
  Polyuria Success, Col Sum (number of cats): 24
  Weight Success, Col Sum (number of cats): 22
[2]; of the 32 cats completing the study
  cats achieving a fructosamine concentration below the upper limit of normal: 26 cats
[2]; over the course of the study
  average cat weight: increased
[2]; thirty-two of the 40 cats enrolled, Day 56±3
  cats considered treatment successes: 80%
[2]; three cats with elevated serum IGF-1
  fructosamine of cats with elevated IGF-1: achieved a normal fructosamine concentration
[2]; week 8, 95% CI 1.40, 2.20, upper limit of normal 1.9 mg dL^−1
  mean serum β-hydroxybutyrate concentration: 1.76 mg/dL
[2]; week 8, 95% CI 80.0%, […]
  mean serum fructosamine, % of the upper limit of normal: 86.7%
[2]; week 8, 95% CI 127, 163
  mean serum glucose: 144
[2]; week 8, in-clinic blood glucose curve, 95% CI 102.8, 128.4
  mean of the five blood glucose determinations: 114.9 mg/dL
